Test results taken from patent US9833466B2, “Treatment of leukemia with histone deacetylase inhibitors” (Acetylon Pharmaceuticals Inc., priority 2014, dated 2017).
“Also recorded” adds a separate entry of the source.

Key:
[1] = system: bone marrow samples derived from AML patients; assay: Primary AML sample colony formation assay; assay type: cell-based; details: Homo sapiens, 336 h, read-out: median IC50, colony formation
Method: (A) 6 bone marrow samples derived from AML patients were cultured in methylcellulose-based medium and treated with increasing concentrations of Compound A, Compound J and azacitidine for 14 days when the colonies reach reasonable size. IC50 values for each drug are plotted. […] IC50 values were plotted for each patient sample.

multiple myeloma = details: preclinical models of multiple myeloma; cited from earlier work
MV4-11 cells = assay: MV4-11 tumor growth and survival in Ncr nu/nu mice; assay type: in vivo
Method: Ncr nu/nu mice implanted with MV4-11 cells were treated with vehicle, azacitidine (5 mg/kg IV q3d), or azacitidine (5 mg/kg IV q3d) plus Compound A (50 mg/kg IP 5/2/5/2/5/2/5) for up to 4 weeks. (A) Tumor volume was measured twice weekly and the mean tumor volume±SD is plotted. (B) Fold tumor volume change on day 19 relative to day 1 is plotted. (C) Survival curve was plotted.

AML1/ETO fusion protein = AML1/ETO fusion protein Western blot in Kasumi-1 cells; assay type: cell-based; details: 24 hours
Method: One type of AML has a signature chromosome translocation t(8:21) and therefore expression of a unique fusion protein AML1/ETO. […] In this study, Kasumi-1 cells were exposed to different concentrations of the HDAC inhibitor Compound A, or another HDAC1/2/6 selective inhibitor Compound G (data not shown), for 24 hours. The whole cell lysates were separated by SDS-PAGE (SDS-polyacrylamide gel electrophoresis) and transferred to a membrane (Western blot). The AML1/ETO fusion protein was detected on the membrane using an AML1 specific antibody.

[2] = Phase I trials; cited from earlier work
HDAC6 = target: T1, HDAC6 (Homo sapiens, UniProt Q9UBN7); assay: HDAC enzyme assays (selectivity for HDAC6); assay type: biochemical
T1 sequence (Q9UBN7 1-1215): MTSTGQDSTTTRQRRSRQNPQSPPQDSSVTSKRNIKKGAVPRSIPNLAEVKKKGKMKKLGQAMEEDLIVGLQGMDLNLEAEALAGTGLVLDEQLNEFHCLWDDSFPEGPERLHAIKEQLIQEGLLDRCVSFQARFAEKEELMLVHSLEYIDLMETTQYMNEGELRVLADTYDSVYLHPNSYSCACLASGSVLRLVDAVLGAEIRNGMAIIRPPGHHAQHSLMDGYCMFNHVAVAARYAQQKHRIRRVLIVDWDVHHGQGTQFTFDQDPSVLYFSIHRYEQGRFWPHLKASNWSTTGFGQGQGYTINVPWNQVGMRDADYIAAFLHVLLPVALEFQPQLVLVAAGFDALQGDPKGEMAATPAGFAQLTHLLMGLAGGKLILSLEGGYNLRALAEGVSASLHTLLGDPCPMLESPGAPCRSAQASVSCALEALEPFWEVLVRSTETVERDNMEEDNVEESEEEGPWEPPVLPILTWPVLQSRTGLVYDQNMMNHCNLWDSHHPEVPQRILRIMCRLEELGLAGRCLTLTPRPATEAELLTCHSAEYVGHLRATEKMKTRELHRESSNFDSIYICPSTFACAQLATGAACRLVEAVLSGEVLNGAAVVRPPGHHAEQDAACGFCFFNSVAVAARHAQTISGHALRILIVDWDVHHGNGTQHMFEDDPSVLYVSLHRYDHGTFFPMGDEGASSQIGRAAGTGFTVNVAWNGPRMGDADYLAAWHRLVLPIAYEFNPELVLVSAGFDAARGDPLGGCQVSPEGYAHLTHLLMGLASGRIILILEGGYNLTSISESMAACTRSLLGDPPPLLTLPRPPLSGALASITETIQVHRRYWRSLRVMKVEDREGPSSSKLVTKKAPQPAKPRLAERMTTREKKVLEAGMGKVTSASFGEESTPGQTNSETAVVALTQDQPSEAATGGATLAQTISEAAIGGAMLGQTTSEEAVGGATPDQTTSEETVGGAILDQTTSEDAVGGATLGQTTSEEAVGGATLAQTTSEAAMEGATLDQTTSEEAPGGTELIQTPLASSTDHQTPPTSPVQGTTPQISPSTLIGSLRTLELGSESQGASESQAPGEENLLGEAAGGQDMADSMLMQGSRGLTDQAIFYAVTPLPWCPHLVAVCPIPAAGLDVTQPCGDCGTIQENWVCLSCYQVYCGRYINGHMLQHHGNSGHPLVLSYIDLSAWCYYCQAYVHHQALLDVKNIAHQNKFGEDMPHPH
Method: Compounds for testing are diluted in DMSO to 50 fold the final concentration and a ten point three fold dilution series is made. The compounds are diluted in assay buffer (50 mM HEPES, pH 7.4, 100 mM Kill, 0.001% Tween-20, 0.05% BASE, 20 μM TEC) to 6 fold their final concentration. The HDAC enzymes (purchased from BPS Biosciences) are diluted to 1.5 fold their final concentration in assay buffer. The dipeptide substrate and trypsin at 0.05 μM final concentration are diluted in assay buffer at 6 fold their final concentration. The final enzyme concentrations to use in these assays are 3.3 ng/ml (HDAC1), 0.2 ng/ml (HDAC2), 0.08 ng/ml (HDAC3) and 2 ng/ml (HDAC6). The final substrate concentrations to use are 16 μM (HDAC1), 10 μM (HDAC2), 17 μM (HDAC3) and 14 μM (HDAC6). Five μ1 of compound and 20 μl of enzyme are added to wells of a black, opaque 384 well plate in duplicate. Enzyme and compound are incubated together at room temperature for 10 min. Five μ1 of substrate is added to each well, the plate is shaken for 60 seconds and placed into a Victor 2 microliter plate reader. The development of fluorescence is monitored for 60 min. and the linear rate of the reaction is calculated. The IC50 is determined using Graph Pad Prism by a four parameter curve fit.

[3] = Compound A 50 mg/kg IP plus azacitidine 5 mg/kg IV q3d, vs azacitidine or vehicle alone

| selective for HDAC6 (HDAC6) | SMILES | IC50 [1] | synergy with bortezomib and immunomodulatory agents (multiple myeloma) | survival (MV4-11 cells; [3]) | tumor growth (MV4-11 cells; [3]) | fold tumor volume change (MV4-11 cells; Compound A plus azacitidine vs azacitidine or vehicle alone, day 19 relative to day 1) | amount of AML1/ETO fusion protein (AML1/ETO fusion protein) | safety and tolerability [2] |
| --- | --- | --- | --- | --- | --- | --- | --- | --- |
|  | O=C(CCCCCCNC(=O)c1cnc(N(c2ccccc2)c2ccccc2)nc1)NO [Compound A, 2-(diphenylamino)-N-(7-(hydroxyamino)-7-oxoheptyl)pyrimidine-5-carboxamide] | 9.76 µM | synergizes with bortezomib | further enhanced; also recorded: increased survival in vivo | further enhanced; also recorded: reduced tumor growth in vivo | reduced the fold tumor volume change | decrease the amount of this fusion protein in a concentration dependent manner | improved safety and tolerability profile |
| about 10 times | O=C(CCCCCCNC(=O)c1cnc(N(c2ccccc2)c2ccccc2Cl)nc1)NO [Compound B, 2-((2-chlorophenyl)(phenyl)amino)-N-(7-(hydroxyamino)-7-oxoheptyl)pyrimidine-5-carboxamide] |  |  |  |  |  |  |  |
